Source: ChEMBL document CHEMBL3232858, “Antiangiogenic activity of hypoxylonol C” (J Nat Prod, 2014)
Activity calls are given as the source filed them.

How the values were obtained:
Details in all cases: Homo sapiens
HUVEC [1] = assay: Antiangiogenic activity in HUVEC assessed as reduction of VEGF-induced CDK1 mRNA level at 20 uM after 24 hrs by RT-PCR analysis; type: functional, cell-based
HUVEC [2] = assay: Antiangiogenic activity in HUVEC assessed as reduction of VEGF-induced integrins alpha3 and beta1 mRNA level at 20 uM after 24 hrs by RT-PCR analysis; type: functional, cell-based
HUVEC [3] = assay: Antiangiogenic activity in HUVEC assessed as inhibition of VEGF-induced tube formation after 11 days; type: functional, cell-based
HUVEC [4] = assay: Antiangiogenic activity in HUVEC assessed as inhibition of VEGF-induced cell migration after 22 hrs
HUVEC [5] = assay: Antiangiogenic activity in HUVEC assessed as inhibition of VEGF-induced cell migration at 1 to 20 uM after 22 hrs
HUVEC [6] = assay: Antiangiogenic activity in HUVEC assessed as reduction of VEGF-induced cyclins A2 and B1 mRNA level at 20 uM after 24 hrs by RT-PCR analysis; type: functional, cell-based
HUVEC [7] = assay: Antiangiogenic activity in HUVEC assessed as inhibition of VEGF-induced tube formation at 1 to 20 uM after 11 days; type: functional, cell-based
HUVEC [8] = assay: Antiangiogenic activity in HUVEC assessed as reduction of VEGF-induced vascular endothelial cadherin mRNA level at 20 uM after 24 hrs by RT-PCR analysis; type: functional, cell-based
HUVEC [9] = assay: Antiangiogenic activity in HUVEC assessed as reduction of VEGF-induced tube length at 1 to 20 uM after 11 days; type: functional, cell-based

O=C1C[C@H]2C(=C3c4c2ccc(O)c4[C@@H](O)C[C@@H]3O)c2cccc(O)c21
active: Activity (HUVEC [1]) | Activity (HUVEC [2]) | inhibition (HUVEC [3]) Dose-dependent effect | inhibition (HUVEC [4]) Dose-dependent effect | inhibition (HUVEC [5]) | Activity (HUVEC [6]) | inhibition (HUVEC [7]) | Activity (HUVEC [8]) | inhibition (HUVEC [9])
